US8410159B2, “Imidazole compounds having pharmaceutical activity towards the sigma receptor” (Laboratories del Dr. Esteve, S.A., priority 2006, dated 2013)

Tests used:
[1] = target: T1, σ1-receptor (Cavia porcellus, UniProt Q60492); test: Sigma-1 receptor binding assay, [3H](+)-pentazocine, brain membranes; settings: guinea pig brain membranes; for inhibition at 0.1 µM: compound 10^−7 M; for inhibition at 0.1 µM / inhibition at 0.01 µM: [3H](+)-pentazocine 0.5 nM; for inhibition at 0.01 µM: compound 10^−8 M; for Ki: σ1, [3H](+)-pentazocine
T1 construct: guinea pig brains were homogenized; from tissue; host or cells: guinea pig brain membranes
T1 sequence (Q60492 whole entry): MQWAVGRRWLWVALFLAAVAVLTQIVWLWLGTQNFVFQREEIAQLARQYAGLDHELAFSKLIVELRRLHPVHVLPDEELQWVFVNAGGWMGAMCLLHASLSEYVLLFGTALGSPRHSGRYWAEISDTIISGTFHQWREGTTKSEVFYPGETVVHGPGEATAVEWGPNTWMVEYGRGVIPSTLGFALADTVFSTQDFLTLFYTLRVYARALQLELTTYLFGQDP
Method: Brain membrane preparation and binding assays for the σ1-receptor were performed as described (DeHaven-Hudkins et al., 1992) with some modifications. In brief, guinea pig brains were homogenized in 10 vols. (w/v) of Tris-HCl 50 mM 0.32 M sucrose, pH 7.4, with a Kinematica Polytron PT 3000 at 15000 r.p.m. for 30 s. The homogenate was centrifuged at 1000 g for 10 min at 4° C. and the supernatants collected and centrifuged again at 48000 g for 15 min at 4° C. The pellet was resuspended in 10 volumes of Tris-HCl buffer (50 mM, pH 7.4), incubated at 37° C. for 30 min, and centrifuged at 48000 g for 20 min at 4° C. Following this, the pellet was resuspended in fresh Tris-HCl buffer (50 mM, pH 7.4) and stored on ice until use.
Each assay tube contained 10 μL of [^3H](+)-pentazocine (final concentration of 0.5 nM), 900 μL of the tissue suspension to a final assay volume of 1 mL and a final tissue concentration of approximately 30 mg tissue net weight/mL. Non-specific binding was defined by addition of a final concentration of 1 μM haloperidol. All tubes were incubated at 37° C. for 150 min before termination of the reaction by rapid filtration over Schleicher & Schuell GF 3362 glass fibre filters [previously soaked in a solution of 0.5% polyethylenimine for at least 1 h]. Filters were then washed with four times with 4 mL of cold Tris-HCl buffer (50 mM, pH 7.4). Following addition of scintillation cocktail, the samples were allowed to equilibrate overnight. The amount of bound radioactivity was determined by liquid scintillation spectrometry using a Wallac Winspectral 1414 liquid scintillation counter. Protein concentrations were determined by the method of Lowry et al. (1951).

[2] = tested on: capsaicin-induced allodynia; test: von Frey filaments in a model of capsaicin-induced allodynia; format: in vivo; settings: percent analgesia compared to control, mice, mechanical stimulus (von Frey) after capsaicin
Method: In-Vivo-Experiments Using von Frey Filaments in a Model of […]-Induced Allodynia: This model is described in detail in the experimental part of WO 2006/010587 A1, examples 1 and 2, the description being included here by reference. Capsaicin is thereby injected into experimental animals to produce acute pain followed by allodynia. Briefly after habituation mice were first treated with the test-compound (or not in controls). Then capsaicin (1% DMSO) is injected into their paw resulting in developing pain in the effected paw. The effected paw is then treated with a mechanical stimulus and the latency time before the paw is withdrawn is measured.

Row | SMILES | melting point [°C] | inhibition at 0.1 µM [1] [%] | inhibition at 0.01 µM [1] [%] | Ki [1] [nM] | Analgesia (16 mg/kg), i.p. % [2] [%]
1 | CN(CCNc1ccn(-c2ccc(Cl)c(Cl)c2)n1)C1CCCCC1.O=C(O)C(=O)O | 114 to 116 | – | – | – | –
2 | CN1CCN(CC(=O)Nc2ccn(-c3ccc(Cl)c(Cl)c3)n2)CC1.O=C(O)C(=O)O | 213 to 217 | – | – | – | –
3 | CN1CCN(CCNc2ccn(-c3ccc(Cl)c(Cl)c3)n2)CC1.O=C(O)C(=O)O | 230 to 232 | – | – | – | –
4 | Clc1ccc(-n2ccc(NCCN3CCCCCC3)n2)cc1Cl.O=C(O)C(=O)O | 157 to 159 | – | – | – | –
5 | CN(CC(=O)Nc1ccn(-c2ccc(Cl)c(Cl)c2)n1)Cc1ccccc1.O=C(O)C(=O)O | 206 to 209 | – | – | – | –
6 | O=C(CN1CCOCC1)Nc1ccn(-c2ccc3ccccc3c2)n1.O=C(O)C(=O)O | 213 to 217 | – | – | – | –
7 | O=C(O)C(=O)O.c1ccc2cc(-n3ccc(NCCN4CCOCC4)n3)ccc2c1 | 148 to 153 | – | – | – | –
8 | Cc1cc(SCCN2CCCC2)nn1-c1ccc(Cl)c(Cl)c1.O=C(O)C(=O)O | 144 to 151 | – | – | – | –
9 | O=C(CN1CCOCC1)Nc1ccn(-c2cccc(Cl)c2)n1.O=C(O)C(=O)O | 219 to 220 | – | – | – | –
10 | Cc1cc(SCCN2CCCCC2)nn1-c1ccc(Cl)c(Cl)c1.O=C(O)C(=O)O | 162 to 164 | – | – | – | –
11 | O=C(CN1CCCC1)Nc1ccn(C2CCCCC2)n1.O=C(O)C(=O)O | 127 to 130 | – | – | – | –
12 | Clc1cccc(-n2ccc(NCCN3CCOCC3)n2)c1.O=C(O)C(=O)O | 144 to 146 | – | – | – | –
13 | O=C(CN1CCCCC1)Nc1ccn(C2CCCCC2)n1.O=C(O)C(=O)O | 177 to 181 | – | – | – | –
14 | CCN(CC)CCNc1ccn(-c2ccc(Cl)c(Cl)c2)n1 [Example 1, 1-(3,4-dichlorophenyl)-N-(2-(diethylamino)ethyl)-1H-pyrazol-3-amine] | – | 66.6 | 1.8 | 46.4 | –
15 | O=C(CN1CCOCC1)Nc1ccn(-c2ccc(Cl)c(Cl)c2)n1 [Example 2, N-(1-(3,4-dichlorophenyl)-1H-pyrazol-3-yl)-2-morpholinoacetamide] | – | 37.8 | 25.9 | – | –
16 | Clc1ccc(-n2ccc(NCCN3CCOCC3)n2)cc1Cl [Example 3, 1-(3,4-dichlorophenyl)-N-(2-morpholinoethyl)-1H-pyrazol-3-amine] | – | 78.9 | 54.3 | – | –
17 | CCN(CC)CC(=O)Nc1ccn(-c2ccc(Cl)c(Cl)c2)n1 [Example 4, N-(1-(3,4-dichlorophenyl)-1H-pyrazol-3-yl)-2-(diethylamino)acetamide] | 69 to 74 | 77.3 | 51.7 | 6.4 | 47
18 | O=C(CN1CCCCC1)Nc1ccn(-c2ccc(Cl)c(Cl)c2)n1 [Example 5, N-[1-(3,4-dichlorophenyl)-1H-pyrazol-3-yl)-2-(piperidin-1-yl)acetamide] | 78 to 82 | 68.2 | 46.1 | – | –
19 | Clc1ccc(-n2ccc(NCCN3CCCCC3)n2)cc1Cl.O=C(O)C(=O)O [Example 6, 1-(3,4-Dichlorophenyl)-N-(2-(piperidin-1-yl)ethyl)-1H-pyrazol-3-amine oxalate] | 168 to 172 | 88.3 | 53.6 | 7.1 | 42
20 | CN(CC(=O)Nc1ccn(-c2ccc(Cl)c(Cl)c2)n1)C1CCCCC1 [Example 11, 2-(cyclohexyl (methyl)amino)-N-(1-(3,4-dichlorophenyl)-1H-pyrazol-3-yl)acetamide] | 88 to 94 | 91.8 | 68.8 | – | –
21 | Clc1ccc(-n2ccc(NCCN3CCN(C4CCCCC4)CC3)n2)cc1Cl [Example 14, N-(2-(4-cyclohexylpiperazin-1-yl)ethyl)-1-(3,4-dichlorophenyl)-1H-pyrazol-3-amine] | 115 to 119 | 100 | 72.1 | – | –
22 | O=C(CN1CCCCCC1)Nc1ccn(-c2ccc(Cl)c(Cl)c2)n1 [Example 28, 2-(azepan-1-yl)-N-(1-(3,4-dichlorophenyl)-1H-pyrazol-3-yl)acetamide] | 99 to 102 | – | – | – | –
23 | Cc1cc(SCCN2CCOCC2)nn1-c1ccc(Cl)c(Cl)c1.O=C(O)C(=O)O [Example 68, 4-(2-(1-(3,4-dichlorophenyl)-5-methyl-1H-pyrazol-3-ylthio)ethyl) morpholine oxalate] | – | 93.5 | 91.2 | 23 ± 0.6 | 21
24 | CCN(CC)CCSc1cc(C)n(-c2ccc(Cl)c(Cl)c2)n1.O=C(O)C(=O)O [Example 70, 2-(1-(3,4-dichlorophe-nyl)-5-methyl-1H-pyrazol-3-ylthio)-N,N-diethylethanamine oxalate] | 184 to 188 | 93.1 | 34.6 | – | –
